Data from ChEMBL document CHEMBL3091384, “Chemical probes to study ADP-ribosylation: synthesis and biochemical evaluation of inhibitors of the human ADP-ribosyltransferase ARTD3/PARP3” (J Med Chem, 2013).

Columns and labels:
[1] = molecular target: Poly [ADP-ribose] polymerase 2 (Homo sapiens) (UniProt Q9UGN5)
Homo sapiens = species on record: Homo sapiens; experiment: Binding affinity to […] (unknown origin) assessed as change in melting temperature by thermal stabilization assay
[2] = system: Poly [ADP-ribose] polymerase 14, ARTD8/PARP14 (Homo sapiens)
[3] = molecular target: T1, Poly [ADP-ribose] polymerase 1 (Homo sapiens, UniProt P09874)
[4] = molecular target: T1, Poly [ADP-ribose] polymerase 1; remark: listed apart in the source
[5] = molecular target: T2, Protein mono-ADP-ribosyltransferase PARP3 (Homo sapiens) (UniProt Q9Y6F1)
T2 sequence (whole entry): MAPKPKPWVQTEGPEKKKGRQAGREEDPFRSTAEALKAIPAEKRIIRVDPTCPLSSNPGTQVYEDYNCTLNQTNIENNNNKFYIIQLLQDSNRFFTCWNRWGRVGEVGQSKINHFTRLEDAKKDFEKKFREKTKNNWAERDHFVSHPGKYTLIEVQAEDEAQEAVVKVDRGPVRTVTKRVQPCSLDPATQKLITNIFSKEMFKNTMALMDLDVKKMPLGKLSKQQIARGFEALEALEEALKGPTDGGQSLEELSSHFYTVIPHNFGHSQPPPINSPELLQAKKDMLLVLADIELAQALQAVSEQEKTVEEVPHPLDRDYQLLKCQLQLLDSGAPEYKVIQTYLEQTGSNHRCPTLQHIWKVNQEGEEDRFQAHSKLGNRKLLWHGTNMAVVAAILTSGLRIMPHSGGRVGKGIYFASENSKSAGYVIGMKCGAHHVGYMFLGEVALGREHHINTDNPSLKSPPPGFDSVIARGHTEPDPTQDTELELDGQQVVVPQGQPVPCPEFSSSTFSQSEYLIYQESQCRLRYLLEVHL

T1 sequence (P09874 whole entry): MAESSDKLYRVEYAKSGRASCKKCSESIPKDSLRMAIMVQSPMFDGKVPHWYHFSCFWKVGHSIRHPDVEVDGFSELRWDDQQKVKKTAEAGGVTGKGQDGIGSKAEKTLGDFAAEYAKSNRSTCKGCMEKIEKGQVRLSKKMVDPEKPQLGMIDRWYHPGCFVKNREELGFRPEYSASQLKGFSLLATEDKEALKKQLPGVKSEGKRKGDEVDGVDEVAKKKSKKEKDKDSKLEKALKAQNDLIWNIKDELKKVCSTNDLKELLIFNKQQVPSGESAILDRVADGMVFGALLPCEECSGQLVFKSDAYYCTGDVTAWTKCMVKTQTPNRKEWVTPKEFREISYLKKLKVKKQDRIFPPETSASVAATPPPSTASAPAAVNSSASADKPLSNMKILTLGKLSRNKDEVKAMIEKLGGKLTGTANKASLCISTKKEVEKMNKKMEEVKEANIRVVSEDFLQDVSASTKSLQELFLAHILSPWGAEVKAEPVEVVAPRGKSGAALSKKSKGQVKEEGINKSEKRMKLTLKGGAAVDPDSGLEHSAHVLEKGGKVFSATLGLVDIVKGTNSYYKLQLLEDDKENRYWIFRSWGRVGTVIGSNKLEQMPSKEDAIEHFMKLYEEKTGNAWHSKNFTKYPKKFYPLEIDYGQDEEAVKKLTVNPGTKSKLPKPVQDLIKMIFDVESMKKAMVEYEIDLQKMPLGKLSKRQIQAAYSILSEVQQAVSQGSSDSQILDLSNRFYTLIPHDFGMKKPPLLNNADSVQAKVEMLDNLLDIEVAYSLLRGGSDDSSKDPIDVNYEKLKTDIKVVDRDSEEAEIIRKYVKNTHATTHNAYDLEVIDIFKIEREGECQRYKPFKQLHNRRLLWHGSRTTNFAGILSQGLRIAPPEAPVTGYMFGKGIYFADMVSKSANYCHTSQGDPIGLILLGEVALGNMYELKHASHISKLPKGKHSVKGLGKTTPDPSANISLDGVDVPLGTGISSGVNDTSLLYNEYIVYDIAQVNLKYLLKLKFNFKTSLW
Poly [ADP-ribose] polymerase 2 (Homo sapiens), sequence (Q9UGN5 whole entry): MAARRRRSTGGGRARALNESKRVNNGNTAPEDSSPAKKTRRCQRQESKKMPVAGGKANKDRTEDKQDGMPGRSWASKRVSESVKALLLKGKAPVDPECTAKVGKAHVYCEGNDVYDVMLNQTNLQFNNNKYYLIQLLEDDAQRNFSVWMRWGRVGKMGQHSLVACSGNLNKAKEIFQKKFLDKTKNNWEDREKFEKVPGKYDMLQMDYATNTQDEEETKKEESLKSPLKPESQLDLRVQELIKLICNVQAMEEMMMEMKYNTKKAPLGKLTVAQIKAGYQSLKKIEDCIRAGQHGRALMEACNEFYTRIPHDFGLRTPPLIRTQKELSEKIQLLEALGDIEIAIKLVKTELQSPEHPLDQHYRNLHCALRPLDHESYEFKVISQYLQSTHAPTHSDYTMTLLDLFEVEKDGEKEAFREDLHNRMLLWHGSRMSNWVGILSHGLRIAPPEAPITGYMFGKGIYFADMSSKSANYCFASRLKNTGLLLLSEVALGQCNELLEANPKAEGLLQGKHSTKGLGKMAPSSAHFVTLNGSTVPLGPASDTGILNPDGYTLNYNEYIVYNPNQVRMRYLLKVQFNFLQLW

Row | ΔTm [1] [°C] | ΔTm (Homo sapiens) [°C] | ΔTm [2] [°C] | IC50 [3] [µM] | ΔTm [4] [°C] | ΔTm [5] [°C] | SMILES
1 | 1.39 | 0.84 | 0.18 | 0.51 | 2.38 | – | O=C(CCc1nc2ccccc2c(=O)[nH]1)N[C@H]1CCc2ccccc21
2 | 1.92 | 0.8 | 0.1 | 0.78 | 2.37 | – | O=C(CCc1nc2ccccc2c(=O)[nH]1)N[C@@H]1CCc2ccccc21
3 | 2.29 | 1.2 | 0.13 | – | 1.52 | 3.46 | O=C(CCCc1nc2ccccc2c(=O)[nH]1)N[C@@H]1CCc2ccccc21
4 | 0.98 | 0.07 | 0.13 | – | 1.93 | 5.71 | CCC(=O)[C@H](Cc1ccccc1)NC(=O)CCc1nc2ccccc2c(=O)[nH]1
5 | -0.67 | 0.42 | -0.07 | – | 1.22 | 0.22 | C[C@H](NC(=O)/C=C/c1nc2ccccc2c(=O)[nH]1)c1ccccc1
6 | -0.46 | 0.12 | 0.12 | – | 0.36 | 0.42 | C[C@H](NC(=O)CCc1nc2ccccc2c(=O)[nH]1)c1ccccc1F
7 | -0.25 | 0.05 | -0.04 | – | 0.37 | 0.63 | C[C@@H](NC(=O)Cc1nc2ccccc2c(=O)[nH]1)c1ccccc1
8 | 0.06 | 0.13 | -0.18 | – | 1 | 0.75 | C[C@H](NC(=O)CCc1nc2ccccc2c(=O)[nH]1)c1cccc(F)c1
9 | -0.48 | 0.29 | -0.1 | – | 0.26 | 0.2 | C[C@H](NC(=O)CCc1nc2ccccc2c(=O)[nH]1)c1cccc(Cl)c1
10 | -0.59 | 0.18 | 0.04 | – | 0.04 | 0.12 | C[C@H](NC(=O)CCc1nc2ccccc2c(=O)[nH]1)c1ccc(Cl)cc1
11 | 1.64 | 0.82 | 0.38 | – | 2.83 | 3.57 | O=C(CCc1nc2ccccc2c(=O)[nH]1)N[C@H](CO)c1ccccc1
